In patent publication US8053435B2, “Naphthalenyloxypropenyl derivatives having inhibitory activity against histone deacetylase and pharmaceutical composition comprising the same” (Korea Research Institute of Chemical Technology, priority 2006, dated 2011):
Where two headings read alike, the source gives them in different places.

Legend:
HDAC = experiment: Inhibitory activity against HDAC (BIOMOL Quantizyme Assay system, Fluor de Lys substrate); format: biochemical; conditions: HeLa nuclear extract as source of HDAC enzymes, enzyme reaction 1 hr
Protocol: HDAC activity was analyzed using BIOMOL Quantizyme™ Assay system which comprised two steps of 1) enzyme reaction between HDAC and a substrate and 2) determination of the level of HDAC inhibitory activity.
(§1) 0.5 μl of HeLa nuclear organic layer (10 μM) (a source of HDAC enzymes) was then added thereto to a final concentration of 100 nM. The enzyme reaction was carried out for 1 hr.
Subsequently, in step 2), 2 μM tricostatin A was added to 50 μl of Flour de Lys™ developer, followed by allowing the mixture to react at room temperature for 15 minutes. The light excited at 355 nm and emitted at 460 nm from the fluorophore was measured with a fluorometric plate reader. The intensity of the fluorescence increases as the enzyme activity is higher. The HDAC inhibitory activity of each of the test compounds was determined and compared with that of the control.
0.5 μl of HeLa nuclear organic layer (10 μM) (a source of HDAC enzymes) was then added thereto to a final concentration of 100 nM, The enzyme reaction was carried out for 1 hr.
as §1, §1

[1] = tested on: colon cancer cells HCT116; experiment: Inhibitory activity against proliferation of cancer cells, SRB (Sulforhodamine B) analysis; format: cell-based; conditions: read-out: Inhibitory conc. against cancer cell growth (EC50 μM) HCT116
Protocol: Cancer cells were inoculated into a 96-well microplate at a concentration of 1×10^3˜3×10^3 cells/well and incubated under the condition of 37° C., 5% CO2 for 24 hrs. After the incubation was completed, 0.2, 1, 5, 25, or 100 μM of each of the compounds of Examples was added to the plate, and then the reactant was incubated for 48 hrs. After the substrate was stained with SRB, the anti-cancer activity was determined by comparing the amount of protein in the cells treated with the compound of Examples with that of protein in untreated cells.
Specifically, after the incubation was completed, the culture medium was removed from each well, and the cells were washed 3 times with PBS (pH 7.4). Then, a solution of 50% trichloroacetic acid (TCA) was added to each well in an amount of 50 μl/well at 4° C. for 1 hr to fix them. Then, the microplate was washed 5 times with distilled water and dried in air. […]
50 μl of a staining solution prepared by dissolving 0.4% SRB in 1% acetic acid was added to the wells, and the microplate was kept at room temperature for 1 hr. The well plate was then washed 5 times with 1% acetic acid to remove unbound SRB and dried in air. The stained cells were treated with 150 μl/well of 10 mM Tris-HCl solution (pH 10.5) to elute SRB from the cells, and the absorbance of the cells treated with the compounds of examples at 540 nm was measured, based on the absorbance of an untreated cell. The EC50 value representing inhibition of the cancer cell growth by the extent of 50% was calculated from the measured absorbance, and the results are shown in Table 6.

[2] = Table 5, formula (3) series, read-out: Inhibitory conc. (IC50, μM/ml)
[3] = Homo sapiens, HCT-116, Table 6, 48 hrs incubation with compound
[4] = Table 7, formula (4) series, read-out: HDAC Inhibitory conc. (IC50, μM/ml)
[5] = Homo sapiens, HCT-116, Table 8, 48 hrs incubation with compound

IC50 (HDAC; [2]) [µM]	EC50 [1, 3] [µM]	IC50 (HDAC; [4]) [µM]	EC50 [1, 5] [µM]	EC50 ([1]; Table 6, 48 hrs incubation with compound) [µM]	Compound
0.002	0.2				O=C(CCCC/C=C(/CNCCN1CCOCC1)COc1cccc2ccccc12)NO [Example 3-1, (Z)—N-hydroxy-8-(2-morpholinoethylamino)-7-((naphthalen-1-yloxy)methyl)oct-6-enamide]
0.005	0.2				COCC(C)NC/C(=C/CCCCC(=O)NO)COc1cccc2ccccc12 (centres unmarked) [Example 3-2, (Z)—N-Hydroxy-8-(1-methoxypropan-2-ylamino)-7-((naphthalen-1-yloxy)methyl)oct-6-enamide]
0.003	0.5				O=C(CCCC/C=C(/CNCCCN1CCCC1=O)COc1cccc2ccccc12)NO [Example 3-3, (Z)—N-Hydroxy-8-(naphthalen-1-yloxy)-7-((3-(2-oxopyrrolidin-1-yl)propylamino)methyl)oct-6-enamide]
0.003	0.7				O=C(CCCC/C=C(/CNCCCn1ccnc1)COc1cccc2ccccc12)NO [Example 3-4, (Z)-8-(3-(1H-Imidazol-1-yl)propylamino)-N-hydroxy-7-((naphthalen-1-yloxy)methyl)oct-6-enamide]
0.012	1.2				CN(C)CC(C)(C)CNC/C(=C/CCCCC(=O)NO)COc1cccc2ccccc12 [Example 3-7, (Z)-8-(3-(Dimethylamino)-2,2-dimethylpropylamino)-N-hydroxy-7-((naphthalen-1-yloxy)methyl)oct-6-enamide]
0.005	0.5				O=C(CCCC/C=C(/CNCCN1CCCC1)COc1cccc2ccccc12)NO [Example 3-8, (Z)—N-Hydroxy-8-(naphthalen-1-yloxy)-7-((2-(pyrrolidin-1-yl)ethylamino)methyl)oct-6-enamide]
0.006	< 0.2				COCCNC/C(=C/CCCCC(=O)NO)COc1cccc2ccccc12 [Example 3-10, (Z)—N-Hydroxy-8-(2-methoxyethylamino)-7-((naphthalen-1-yloxy)methyl)oct-6-enamide]
0.012	1.3				CC(C)N1CCC(NC/C(=C/CCCCC(=O)NO)COc2cccc3ccccc23)CC1 [Example 3-11, (Z)—N-Hydroxy-8-(1-isopropylpiperidin-4-ylamino)-7-((naphthalen-1-yloxy)methyl)oct-6-enamide]
0.002	0.3				O=C(CCCC/C=C(/CNCc1cccs1)COc1cccc2ccccc12)NO [Example 3-14, (Z)—N-Hydroxy-8-(naphthalen-1-yloxy)-7-((thiophen-2-ylmethylamino)methyl)oct-6-enamide]
		0.014	1.1		CCN1CCC(NC/C(=C/c2ccc(C(=O)NO)cc2)COc2cccc3ccccc23)CC1 [Example 4-1, (Z)-4-(3-(1-ethylpiperidin-4-ylamino)-2-((naphthalen-1-yloxy)methyl)prop-1-enyl)-N-hydroxybenzamide]
		0.017	0.8		CCN1CCC(NC/C(=C/c2ccc(C(=O)NO)cc2)COc2cccc3ccccc23)C1 (centres unmarked) [Example 4-2, (Z)-4-(3-(1-ethylpyrrolidin-3-ylamino)-2-((naphthalen-1-yloxy)methyl)prop-1-enyl)-N-hydroxybenzamide]
		0.016	10		O=C(NO)c1ccc(/C=C(/CNC2CCN(C3CCCC3)CC2)COc2cccc3ccccc23)cc1 [Example 4-7, (Z)-4-(3-(1-cyclopentylpiperidin-4-ylamino)-2-((naphthalen-1-yloxy)methyl)prop-1-enyl)-N-hydroxybenzamide]
		0.011	0.5		O=C(NO)c1ccc(/C=C(/CNC2CCN(C3CC3)CC2)COc2cccc3ccccc23)cc1 [Example 4-10, (Z)-4-(3-(1-cyclopropylpiperidin-4-ylamino)-2-((naphthalen-1-yloxy)methyl)prop-1-enyl)-N-hydroxybenzamide]
		0.023	1		O=C(NO)c1ccc(/C=C(/CNC2CCN(C3CC3)C2)COc2cccc3ccccc23)cc1 (centres unmarked) [Example 4-11, (Z)-4-(3-(1-cyclopropylpyrrolidin-3-ylamino)-2-((naphthalen-1-yloxy)methyl)prop-1-enyl)-N-hydroxybenzamide]
		0.005	< 0.2		COCC(C)NC/C(=C/c1ccc(C(=O)NO)cc1)COc1cccc2ccccc12 (centres unmarked) [Example 4-13, (Z)—N-hydroxy-4-(3-(1-methoxypropan-2-ylamino)-2-((naphthalen-1-yloxy)methyl)prop-1-enyl)benzamide]
		0.014	0.4		CC(C)N1CCC(NC/C(=C/c2ccc(C(=O)NO)cc2)COc2cccc3ccccc23)CC1 [Example 4-15, (Z)—N-hydroxy-4-(3-(1-isopropylpiperidin-4-ylamino)-2-((naphthalen-1-yloxy)methyl)prop-1-enyl)benzamide]
		0.003	0.7		O=C(NO)c1ccc(/C=C(/CNCCCn2ccnc2)COc2cccc3ccccc23)cc1 [Example 4-16, (Z)-4-(3-(3-(1H-imidazol-1-yl)propylamino)-2-((naphthalen-1-yloxy)methyl)prop-1-enyl)-N-hydroxybenzamide]
		0.003	< 0.2		O=C(NO)c1ccc(/C=C(/CNCCc2ccc(O)cc2)COc2cccc3ccccc23)cc1 [Example 4-17, (Z)—N-hydroxy-4-(3-(4-hydroxyphenethylamino)-2-((naphthalen-1-yloxy)methyl)prop-1-enyl)-benzamide]
		0.006	0.31		CN(C)CC(C)(C)CNC/C(=C/c1ccc(C(=O)NO)cc1)COc1cccc2ccccc12 [Example 4-18, (Z)-4-(3-(3-(dimethylamino)-2,2-dimethylpropylamino)-2-((naphthalen-1-yloxy)methyl)prop-1-enyl)-N-hydroxybenzamide]
		0.016	0.8		CC(C)N(CCNC/C(=C/c1ccc(C(=O)NO)cc1)COc1cccc2ccccc12)C(C)C [Example 4-19, (Z)-4-(3-(2-(diisopropylamino)ethylamino)-2-((naphthalen-1-yloxy)methyl)prop-1-enyl)-N-hydroxybenzamide]
		0.01	< 0.2		COCCNC/C(=C/c1ccc(C(=O)NO)cc1)COc1cccc2ccccc12 [Example 4-20, (Z)—N-hydroxy-4-(3-(2-methoxyethylamino)-2-((naphthalen-1-yloxy)methyl)prop-1-enyl)-benzamide]
		0.02	1.3		O=C(NO)c1ccc(/C=C(/CNCc2cccs2)COc2cccc3ccccc23)cc1 [Example 4-22, (Z)—N-hydroxy-4-(3-(naphthalen-1-yloxy)-2-((thiophen-2-ylmethylamino)methyl)prop-1-enyl)benzamide]
		0.04	0.8		COc1ccc(CCNC/C(=C/c2ccc(C(=O)NO)cc2)COc2cccc3ccccc23)cc1 [Example 4-23, (Z)—N-hydroxy-4-(3-(4-methoxyphenethylamino)-2-((naphthalen-1-yloxy)methyl)prop-1-enyl)-benzamide]
		0.011	0.5		CN(C)c1ccc(CNC/C(=C/c2ccc(C(=O)NO)cc2)COc2cccc3ccccc23)cc1 [Example 4-24]
0.003				0.4	(Z)-8-(4-Fluorophenethylamino)-N-hydroxy-7-((naphthalen-1-yloxy)methyl)oct-enamide [Example 3-9]
